Inconclusive results and toxic doses are left out. Rule as the data show it: active = T/C of 150% or more; inactive = T/C below 125%.
Test system: L1210 leukemia ip in BDF1 mice, survival T/C
Test: NCI In Vivo Anticancer Drug Screen. Data for tumor model L1210 Leukemia (intraperitoneal) in B6D2F1 (BDF1) mice
Conditions: endpoint: mean survival time, higher = longer survival
In short: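 Ratio derived from survival: compound-dosed mice over vehicle-dosed mice, all bearing a transplantable tumor.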

[1] = dose: 100.0 mg/kg/injection, schedule: Q01DX001 (ip), vehicle: saline
[2] = dose: 200.0 mg/kg/injection, schedule: Q01DX001 (ip), vehicle: saline
[3] = dose: 400.0 mg/kg/injection, schedule: Q01DX001 (ip), vehicle: saline
[4] = dose: 100.0 mg/kg/injection, schedule: Q01DX009 (ip), vehicle: saline
[5] = dose: 100.0 mg/kg/injection, schedule: Q04DX003 (ip), vehicle: Klucel (hydroxypropylcellulose) (HPC)
[6] = dose: 200.0 mg/kg/injection, schedule: Q01DX009 (ip), vehicle: saline
[7] = dose: 200.0 mg/kg/injection, schedule: Q04DX003 (ip), vehicle: Klucel (hydroxypropylcellulose) (HPC)
[8] = dose: 400.0 mg/kg/injection, schedule: Q04DX003 (ip), vehicle: Klucel (hydroxypropylcellulose) (HPC)
[9] = dose: 100.0 mg/kg/injection, schedule: Q01DX009 (ip), vehicle: saline with Tween-80
[10] = dose: 200.0 mg/kg/injection, schedule: Q01DX009 (ip), vehicle: saline with Tween-80
[11] = dose: 400.0 mg/kg/injection, schedule: Q01DX009 (ip), vehicle: saline with Tween-80
[12] = dose: 100.0 mg/kg/injection, schedule: Q04DX002 (ip), vehicle: Klucel (hydroxypropylcellulose) (HPC)
[13] = dose: 200.0 mg/kg/injection, schedule: Q04DX002 (ip), vehicle: Klucel (hydroxypropylcellulose) (HPC)
[14] = dose: 100.0 mg/kg/injection, schedule: Q04DX003 (ip), vehicle: saline
[15] = dose: 50.0 mg/kg/injection, schedule: Q01DX009 (ip), vehicle: saline

Measured: T/C

CNC(=O)Nc1nc2ccc([N+](=O)[O-])cc2[nH]1
inactive: [1] 105 % of control | [2] 103 % of control | [3] 97 % of control

S=C=NCC(Br)CBr (centres undefined)
inactive: dose: 6.25 mg/kg/injection, schedule: Q01DX009 (ip), vehicle: Klucel (hydroxypropylcellulose) (HPC) 104 % of control | dose: 12.5 mg/kg/injection, schedule: Q01DX009 (ip), vehicle: Klucel (hydroxypropylcellulose) (HPC) 103 % of control | dose: 12.5 mg/kg/injection, schedule: Q04DX003 (ip), vehicle: Klucel (hydroxypropylcellulose) (HPC) 95 % of control | dose: 25.0 mg/kg/injection, schedule: Q01DX009 (ip), vehicle: Klucel (hydroxypropylcellulose) (HPC) 87 % of control | dose: 25.0 mg/kg/injection, schedule: Q04DX003 (ip), vehicle: Klucel (hydroxypropylcellulose) (HPC) 105 % of control

O=C(Cc1ccc([N+](=O)[O-])cc1)c1ccccc1
inactive: dose: 100.0 mg/kg/injection, schedule: Q01DX001 (ip), vehicle: Klucel (hydroxypropylcellulose) (HPC) 95 % of control | dose: 100.0 mg/kg/injection, schedule: Q01DX009 (ip), vehicle: Klucel (hydroxypropylcellulose) (HPC) 102 % of control | [4] 108 % of control | [5] 97 % of control | dose: 200.0 mg/kg/injection, schedule: Q01DX001 (ip), vehicle: Klucel (hydroxypropylcellulose) (HPC) 88 % of control | dose: 200.0 mg/kg/injection, schedule: Q01DX009 (ip), vehicle: Klucel (hydroxypropylcellulose) (HPC) 103 % of control | [6] 102 % of control | [7] 97 % of control | dose: 400.0 mg/kg/injection, schedule: Q01DX001 (ip), vehicle: Klucel (hydroxypropylcellulose) (HPC) 90 % of control | dose: 400.0 mg/kg/injection, schedule: Q01DX009 (ip), vehicle: Klucel (hydroxypropylcellulose) (HPC) 94 % of control | dose: 400.0 mg/kg/injection, schedule: Q01DX009 (ip), vehicle: saline 97 % of control | [8] 101 % of control

Nc1cccc(CCc2nc(N)nc(N)c2-c2ccc(Cl)cc2)c1
inactive: dose: 100.0 mg/kg/injection, schedule: Q01DX001 (ip), vehicle: saline with Tween-80 97 % of control | dose: 200.0 mg/kg/injection, schedule: Q01DX001 (ip), vehicle: saline with Tween-80 95 % of control | dose: 400.0 mg/kg/injection, schedule: Q01DX001 (ip), vehicle: saline with Tween-80 101 % of control

Nc1nc2c(ncn2C(/C=N/Nc2ccccc2)OC(/C=N/Nc2ccccc2)CO)c(=O)[nH]1 (centres undefined)
inactive: dose: 100.0 mg/kg/injection, schedule: Q01DX001 (ip), vehicle: other 98 % of control | dose: 200.0 mg/kg/injection, schedule: Q01DX001 (ip), vehicle: other 106 % of control | dose: 400.0 mg/kg/injection, schedule: Q01DX001 (ip), vehicle: other 108 % of control

CCOCC(C(=O)OCC)C(=O)OCC
inactive: [9] 111 % of control | [10] 111 % of control | [11] 97 % of control

CC1CCCCN1C(=O)c1ccccc1C(=O)O (centres undefined)
inactive: [12] 104 % of control | [13] 111 % of control

N#CC1(Cc2ccc(Br)cc2)c2cc(OC(=O)c3ccccc3)ccc2C=CN1C(=O)c1ccccc1 (centres undefined)
inactive: [5] 96 % of control | [7] 99 % of control | [8] 99 % of control

C=CC1CN2CCC1CC2C(O)c1ccnc2ccc(OC)cc12 (centres undefined)
inactive: dose: 27.45 mg/kg/injection, schedule: Q01DX Z (ip), vehicle: other 92 % of control | dose: 54.9 mg/kg/injection, schedule: Q01DX Z (ip), vehicle: other 92 % of control | dose: 75.0 mg/kg/injection, schedule: Q01DX009 (ip), vehicle: saline with Tween-80 92 % of control | dose: 109.8 mg/kg/injection, schedule: Q01DX Z (ip), vehicle: other 94 % of control | [2] 101 % of control

CSc1nc2ccc([N+](=O)[O-])cc2s1
inactive: [12] 93 % of control | [13] 97 % of control | dose: 400.0 mg/kg/injection, schedule: Q04DX002 (ip), vehicle: Klucel (hydroxypropylcellulose) (HPC) 101 % of control

CCN1CCC(CCOC)(CN2c3ccccc3Sc3ccc(Cl)cc32)C1 (centres undefined)
inactive: [14] 89 % of control

CC(=O)c1c(C)cc2cc(C)cc(O)c2c1O
inactive: [5] 97 % of control | [7] 101 % of control | [8] 101 % of control

CCOC(=O)/C=C/c1ccco1
inactive: dose: 50.0 mg/kg/injection, schedule: Q01DX009 (ip), vehicle: saline with Tween-80 93 % of control | [9] 96 % of control | dose: 100.0 mg/kg/injection, schedule: Q04DX003 (ip), vehicle: saline with Tween-80 103 % of control | [10] 93 % of control | dose: 200.0 mg/kg/injection, schedule: Q04DX003 (ip), vehicle: saline with Tween-80 95 % of control

NC(N)=N/N=C/C/C=N/N=C(N)N
inactive: dose: 15.0 mg/kg/injection, schedule: Q01DX Z (ip), vehicle: saline 97 % of control | dose: 30.0 mg/kg/injection, schedule: Q01DX Z (ip), vehicle: saline 100 % of control | dose: 60.0 mg/kg/injection, schedule: Q01DX Z (ip), vehicle: saline 96 % of control | dose: 120.0 mg/kg/injection, schedule: Q01DX Z (ip), vehicle: saline 100 % of control | dose: 120.0 mg/kg/injection, schedule: Q01DX Z (oral), vehicle: saline 102 % of control | dose: 240.0 mg/kg/injection, schedule: Q01DX Z (oral), vehicle: saline 102 % of control | dose: 480.0 mg/kg/injection, schedule: Q01DX Z (oral), vehicle: saline 107 % of control | dose: 960.0 mg/kg/injection, schedule: Q01DX Z (oral), vehicle: saline 103 % of control

Clc1ccc(N=CC2CCC=CO2)cc1 (centres undefined)
inactive: dose: 222.0 mg/kg/injection, schedule: Q01DX Z (ip), vehicle: saline 92 % of control | dose: 333.0 mg/kg/injection, schedule: Q01DX Z (ip), vehicle: saline 95 % of control | dose: 500.0 mg/kg/injection, schedule: Q01DX Z (ip), vehicle: saline 92 % of control

CCOC(CC)OCC
inactive: [1] 97 % of control | [2] 103 % of control | [3] 94 % of control

CCCCCCCCCCCCCCCCCCNC(=S)N/N=C/c1ccccc1[N+](=O)[O-]
inactive: dose: 111.0 mg/kg/injection, schedule: Q01DX Z (ip), vehicle: methylcellulose (MC) 90 % of control | dose: 166.0 mg/kg/injection, schedule: Q01DX Z (ip), vehicle: methylcellulose (MC) 86 % of control

CC(CN(C)C)C(=O)/C=C/c1ccccc1 (centres undefined)
inactive: dose: 12.5 mg/kg/injection, schedule: Q01DX009 (ip), vehicle: saline 103 % of control | dose: 25.0 mg/kg/injection, schedule: Q01DX009 (ip), vehicle: saline 104 % of control | [15] 107 % of control

CCOC(=O)/C(C)=N\N(C)C
inactive: [4] 92 % of control | [14] 97 % of control | [6] 92 % of control | dose: 200.0 mg/kg/injection, schedule: Q04DX003 (ip), vehicle: saline 101 % of control | dose: 400.0 mg/kg/injection, schedule: Q04DX003 (ip), vehicle: saline 88 % of control

NC(Cc1ccccc1)C(=O)O (centres undefined)
inactive: dose: 75.0 mg/kg/injection, schedule: Q01DX001 (ip), vehicle: saline with Tween-80 102 % of control | dose: 100.0 mg/kg/injection, schedule: Q01DX001 (ip), vehicle: carboxymethylcellulose (CMC) 93 % of control | [5] 102 % of control | dose: 150.0 mg/kg/injection, schedule: Q01DX001 (ip), vehicle: saline with Tween-80 102 % of control | dose: 200.0 mg/kg/injection, schedule: Q01DX001 (ip), vehicle: carboxymethylcellulose (CMC) 96 % of control | [7] 86 % of control | dose: 300.0 mg/kg/injection, schedule: Q01DX001 (ip), vehicle: saline with Tween-80 98 % of control | dose: 400.0 mg/kg/injection, schedule: Q01DX001 (ip), vehicle: carboxymethylcellulose (CMC) 93 % of control

ClC/C=[CH]/[Sn]([c]1ccccc1)([c]1ccccc1)[c]1ccccc1
inactive: [15] 112 % of control | [4] 116 % of control

ClC12CCCC3CCCC(CCC1)C32 (centres undefined)
inactive: [9] 101 % of control | [5] 103 % of control | [10] 90 % of control | [7] 97 % of control | [11] 89 % of control | [8] 96 % of control

Cc1cc(C)nc(/N=C(/N)Nc2ccc(S(=O)(=O)NC(=O)Nc3ccccc3)cc2)n1
inactive: [1] 92 % of control | [2] 98 % of control | [3] 102 % of control
